# Measurements reported in paper PMC8617031, “Development of a BCL-xL and BCL-2 dual degrader with improved anti-leukemic activity,” (Nature Communications, 2021).
# Several values for one entry are separate records, joined by “and”; a condition that tells them apart may be missing. Equal values may be shown once.
# Target: T1, BCL-2/PROTAC/VCB ternary complex (Homo sapiens, UniProt P10415+P40337)
# T1 construct: pGEX-6P-1-VHL(54-213) (pDL2200) was constructed through Gibson assembly method; made in house; host or cells: bacterial culture (LB broth, IPTG induction)
# Experiment: AlphaLISA ternary complex formation, cell-free, BCL-2
# Format: binding
# Conditions: raw plate signal, duplicate wells
# Procedure: AlphaLISA assay was used to evaluate the in vitro ternary complex formation between target proteins (BCL-xL or BCL-2), PROTAC and E3 ligase (VCB complex). In each well, 5 nM His-tagged BCL-xL or BCL-2 proteins and 5 nM GST-VCB complex was incubated with varying concentrations of compounds in fourfold serial dilutions, to a final volume of 40 µl in a 96-well PCR plate. After incubation at room temperature for 30 min, 5 µl alpha glutathione-donor beads (Cat. No. 6765300, PerkinElmer) were added to each well (20 µg/ml final concentration) and incubated for another 15 min. Thereafter, 5 µL 6× His-acceptor beads were added to each well (20 µg/ml final concentration) and incubated for an additional 45 min at room temperature. Thereafter, 17 µl of each sample was transferred in adjacent wells of a 384-well proxy plate, and the plate was scanned using the Alpha program on Biotek’s Synergy Neo2 multimode plate reader. The data were expressed as average AlphaLISA signal and plotted against different concentrations of compounds using GraphPad Prism 9 software.
# T1 sequence (P10415 1-211 limits assumed): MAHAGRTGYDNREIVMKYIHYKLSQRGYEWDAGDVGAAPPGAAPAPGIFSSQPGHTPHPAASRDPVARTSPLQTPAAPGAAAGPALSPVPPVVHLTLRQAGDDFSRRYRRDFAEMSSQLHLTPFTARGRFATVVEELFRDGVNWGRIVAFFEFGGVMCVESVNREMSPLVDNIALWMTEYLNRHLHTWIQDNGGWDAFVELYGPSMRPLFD
# T1 sequence (P40337 54-213 limits assumed): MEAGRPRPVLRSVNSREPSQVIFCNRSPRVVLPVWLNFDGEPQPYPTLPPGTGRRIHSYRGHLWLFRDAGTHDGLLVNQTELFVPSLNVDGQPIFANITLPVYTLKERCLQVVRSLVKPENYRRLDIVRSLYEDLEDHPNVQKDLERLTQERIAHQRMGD
# T1 sequence (Q15369 17-112 partner limits assumed): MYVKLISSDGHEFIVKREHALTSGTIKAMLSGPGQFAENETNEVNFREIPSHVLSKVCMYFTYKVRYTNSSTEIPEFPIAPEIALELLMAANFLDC
# T1 sequence (Q15370 whole entry partner): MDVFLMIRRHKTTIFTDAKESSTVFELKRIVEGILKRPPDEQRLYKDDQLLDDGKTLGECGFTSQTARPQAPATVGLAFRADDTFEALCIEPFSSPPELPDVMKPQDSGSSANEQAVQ
"Alpha (Alpha Endpoint read, Bcl-2 ternary complex formation) (Conc. 0.0762939 nM)","Alpha (Alpha Endpoint read, Bcl-2 ternary complex formation) (Conc. 0.305176 nM)","Alpha (Alpha Endpoint read, Bcl-2 ternary complex formation) (Conc. 1.2207 nM)","Alpha (Alpha Endpoint read, Bcl-2 ternary complex formation) (Conc. 4.88281 nM)","Alpha (Alpha Endpoint read, Bcl-2 ternary complex formation) (Conc. 19.5312 nM)","Alpha (Alpha Endpoint read, Bcl-2 ternary complex formation) (Conc. 78.125 nM)","Alpha (Alpha Endpoint read, Bcl-2 ternary complex formation) (Conc. 312.5 nM)","Alpha (Alpha Endpoint read, Bcl-2 ternary complex formation) (Conc. 1250 nM)","Alpha (Alpha Endpoint read, Bcl-2 ternary complex formation) (Conc. 5000 nM)","Alpha (Alpha Endpoint read, Bcl-2 ternary complex formation) (Conc. 20000 nM)",SMILES
50534 and 53139,145058 and 154080,205372 and 217088,773602 and 780039,1990534 and 2015902,2343633 and 2509831,1692897 and 1765154,434318 and 434578,40362 and 44856,14264 and 11638,Cc1ncsc1-c1ccc([C@H](C)NC(=O)[C@@H]2C[C@@H](O)CN2C(=O)[C@@H](NC(=O)CCCCCCC(=O)N2CCN(C[C@@]3(C)CCC(c4ccc(Cl)cc4)=C(CN4CCN(c5ccc(C(=O)NS(=O)(=O)c6ccc(N[C@H](CCN7CCOCC7)CSc7ccccc7)c(S(=O)(=O)C(F)(F)F)c6)cc5)CC4)C3)CC2)C(C)(C)C)cc1 [753a]
13075 and 14039,25282 and 13828,26631 and 14952,23864 and 13192,,25354 and 12957,,25045 and 14016,,20320 and 11437,"CC1(C)CCC(c2ccc(Cl)cc2)=C(CN2CCN(c3ccc(C(=O)NS(=O)(=O)c4ccc(N[C@H](CCN5CCOCC5)CSc5ccccc5)c(S(=O)(=O)C(F)(F)F)c4)cc3)CC2)C1 [ABT263, navitoclax]"
